Test results from patent US6451814B1, “Heterocyclic β-3 adrenergic receptor agonists” (Wyeth, priority 2000, dated 2002).
Structures can show the parent of a compound that is named as a salt.

Target: T1, human β3-adrenergic receptor (Homo sapiens, UniProt P13945)
T1 construct: Full length β3 AR clones (402 amino acids) containing the last 6 amino acids of hβ3—AR are prepared; expressed in transfected cells; host or cells: CHO cells
Assay: cAMP response (SPA kit) in CHO cells transfected with human β3 adrenergic receptor
Format: cell-based
Settings: CHO cells expressing human β3-AR; 10^-9 M to 10^-5 M; 30 min at 37° C.; cAMP by SPA; read-out: EC50(β3)

T1 sequence (P13945 whole entry): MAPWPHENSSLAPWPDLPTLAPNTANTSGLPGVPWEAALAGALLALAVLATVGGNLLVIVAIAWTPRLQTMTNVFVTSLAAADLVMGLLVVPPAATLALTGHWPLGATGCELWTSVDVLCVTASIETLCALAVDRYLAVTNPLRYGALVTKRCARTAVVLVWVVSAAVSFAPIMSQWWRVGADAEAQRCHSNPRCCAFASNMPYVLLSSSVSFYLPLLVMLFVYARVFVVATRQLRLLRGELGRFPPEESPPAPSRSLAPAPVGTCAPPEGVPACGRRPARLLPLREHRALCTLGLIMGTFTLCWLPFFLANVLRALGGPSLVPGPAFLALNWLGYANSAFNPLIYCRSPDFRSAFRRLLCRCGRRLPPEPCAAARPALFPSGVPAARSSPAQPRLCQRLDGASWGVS

Question: For CCCCCCCCNC(=O)N1CCC(N(C(C)=O)c2ccc(CCNC[C@H](O)COc3ccc(O)cc3)cc2)CC1 [Example 8, 4-[Acetyl-(4-{2-[(2S)-2-hydroxy-3-(4-hydroxy-phenoxy)-propylamino]-ethyl}-phenyl)-amino]-piperidine-1-carboxylic Acid Octylamide], which EC50 is on record?
Answer: The EC50 was 64 nM.

Question: For Cc1ccc(S(=O)(=O)N2CCC(Nc3ccc(CCNC[C@H](O)COc4ccc(O)cc4)cc3)CC2)cc1 [Example 112, 4-[(2S)-2-Hydroxy-3-(2-{4-[1-(toluene-4-sulfonyl)-piperidin-4-ylamino]-phenyl}-ethylamino)-propoxy]-phenol], which EC50 is on record?
Answer: The EC50 was 86 nM.

Same assay, conditions: maximal response of compound compared to maximal response of isoproterenol at 10^-5 M; CHO cells, human β3-AR

Question: With CCCCCCCCNC(=O)N1CCC(N(C(C)=O)c2ccc(CCNC[C@H](O)COc3ccc(O)cc3)cc2)CC1 [Example 8, 4-[Acetyl-(4-{2-[(2S)-2-hydroxy-3-(4-hydroxy-phenoxy)-propylamino]-ethyl}-phenyl)-amino]-piperidine-1-carboxylic Acid Octylamide] as the compound, how does the “IA(β3)” value read?
Answer: Its value is 0.82.

Question: For Cc1ccc(S(=O)(=O)N2CCC(Nc3ccc(CCNC[C@H](O)COc4ccc(O)cc4)cc3)CC2)cc1 [Example 112, 4-[(2S)-2-Hydroxy-3-(2-{4-[1-(toluene-4-sulfonyl)-piperidin-4-ylamino]-phenyl}-ethylamino)-propoxy]-phenol], which “IA(β3)” value is on record?
Answer: Its value is 0.89.

Tested on: not given
Assay: not given
Settings: not given

Question: With CCCCCCCCNC(=O)N1CCC(Oc2ccc(CCNC[C@H](O)COc3ccc(O)cc3)cc2)CC1 (as salt: salt) [Example 54, 4-[4-(2-{[(2S)-2-Hydroxy-3-(4-hydroxyphenoxy)propyl]amino}ethyl)phenoxy]-N-octyl-1-piperidinecarboxamide] as the compound, how does the melting point read?
Answer: The melting point was 153 to 155 °C.

Question: With Cc1ccc(S(=O)(=O)N2CCC(Nc3ccc(CCNC[C@H](O)COc4ccc(O)cc4)cc3)CC2)cc1 (as salt: salt) [Example 112, 4-[(2S)-2-Hydroxy-3-(2-{4-[1-(toluene-4-sulfonyl)-piperidin-4-ylamino]-phenyl}-ethylamino)-propoxy]-phenol] as the compound, how does the melting point read?
Answer: The melting point was 89 to 92 °C.

Question: For COc1c(C(=O)N2CCC(Nc3ccc(CCNC[C@H](O)COc4ccc(O)cc4)cc3)CC2)sc2ccccc12 (as salt: salt) [Example 97, [4-(4-{2-[(2S)-2-Hydroxy-3-(4-hydroxy-phenoxy)-propylamino]-ethyl}-phenylamino)-piperidin-1-yl]-(3-methoxy-benzo[b]thiophen-2-yl)-methanone], which melting point is on record?
Answer: Its melting point is 84 to 86 °C.

Question: For COc1cccc(CCNC(=O)N2CCC(Nc3ccc(CCNC[C@H](O)COc4ccc(O)cc4)cc3)CC2)c1 (as salt: salt) [Example 6, 4-(4-{2-[(2S)-2-Hydroxy-3-(4-hydroxy-phenoxy)-propylamino]-ethyl}-phenylamino)-piperidine-1-carboxylic Acid [2-(3-methoxy-phenyl)-ethyl]-amide], which melting point is on record?
Answer: The melting point was 103 to 108 °C.

Question: Which melting point does the source give for CCCCCCCCNC(=O)N1CCC(Nc2ccc(CCNC[C@H](O)COc3ccc(F)cc3)cc2)CC1 [Example 3, 4-(4-{2-[(2S)-3-(4-Fluoro-phenoxy)-2-hydroxy-propylamino]-ethyl}-phenylamino)-piperidine-1-carboxylic Acid Octylamide] here?
Answer: The melting point was 58 to 64 °C.

Question: With O=C(NCc1ccc(Cl)c(Cl)c1)N1CCC(Nc2ccc(CCNC[C@H](O)COc3ccc(O)cc3)cc2)CC1 (as salt: ammonium) [Example 21, 4-(4-{2-[(2S)-2-Hydroxy-3-(4-hydroxy-phenoxy)-propylamino]-ethyl}-phenylamino)-piperidine-1-carboxylic Acid 3,4-dichloro-benzylamide] as the compound, how does the melting point read?
Answer: The melting point was 94 to 97 °C.

Question: For CCOC(=O)C1CCCN(C(=O)N2CCC(Nc3ccc(CCNC[C@H](O)c4ccc(O)c(NS(C)(=O)=O)c4)cc3)CC2)C1 (stereo partly drawn) (as salt: salt) [Example 78, 1-[[4-[[4-[2-[[(2R)-2-Hydroxy-2-[4-hydroxy-3-[(methylsulfonyl)amino]phenyl]ethyl]amino]ethyl]phenyl]amino]-1-piperidinyl]carbonyl]-3-piperidine Carboxylic Acid, Ethyl Ester], which melting point is on record?
Answer: Its melting point is 106 to 108 °C.

Question: For CC(C)NC(=O)N1CCC(Nc2ccc(CCNC[C@H](O)COc3ccc(O)cc3)cc2)CC1 (as salt: salt) [Example 11], which melting point is on record?
Answer: The melting point was 89 to 96 °C.

Question: For C=CCc1ccccc1OC[C@@H](O)CNCCc1ccc(NC2CCN(S(=O)(=O)c3ccc(N(CCCCCC)C(N)=O)cc3)CC2)cc1 [Example 110, N-[4-({4-[4-(2-{[(2S)-3-(2-allylphenoxy)-2-hydroxypropyl]amino}ethyl)anilino]-1-piperidinyl}sulfonyl)phenyl]-N-hexylurea], which melting point is on record?
Answer: Its melting point is 68 to 70 °C.
